PMC9820592, “Novel Chiral Ru(II) Complexes as Potential c-myc G-quadruplex DNA Stabilizers Inducing DNA Damage to Suppress Triple-Negative Breast Cancer Progression” (International Journal of Molecular Sciences, 2022)

Legend:
[1] = tested on: A549 cells; test: MTT assay, A549 cells; format: cell-based, human; details: 72 h, read-out: Inhibitory Effect (IC50/μM) A549
Experimental: (§1) Liver cancer HepG2 cells, lung cancer A549 cells, breast cancer MCF-7 and MDA-MB-231 cells, human nasopharyngeal carcinoma CNE-1 cells, and human immortalized keratinocyte HaCaT cells were seeded in 96-well plates (5 × 10^3 cells per well) and cultured at 37 °C and 5% CO2 for 24 h. Cells were treated with different concentrations of the complexes (0, 1.5625, 3.125, 6.25, 12.5, 25, 50, and 100 µM) for 72 h. After adding 20 µL MTT (5 mg/mL) solution to each well, the cells were incubated for 4 h, and then 150 µL DMSO was added to each well. The optical density of each well was detected by a microplate reader at a wavelength of 570 nm. The cell survival rate (%) = A(experimental group)/A(control group) × 100%, and the IC50 value was analyzed and calculated based on the survival rate.

[2] = tested on: HepG2 cells; test: MTT assay, HepG2 cells; format: cell-based, human; details: 72 h, read-out: Inhibitory Effect (IC50/μM) HepG2
Experimental: as §1

[3] = tested on: MCF-7 cells; test: MTT assay, MCF-7 cells; format: cell-based, human; details: 72 h, read-out: Inhibitory Effect (IC50/μM) MCF-7
Experimental: as §1

[4] = tested on: MDA-MB-231 cells; test: MTT assay, MDA-MB-231 cells; format: cell-based, human; details: 72 h, read-out: Inhibitory Effect (IC50/μM) MDA-MB-231
Experimental: as §1

[5] = tested on: HaCaT cells; test: MTT assay, normal HaCaT keratinocytes; format: cell-based; details: 72 h, normal human keratinocytes, read-out: Inhibitory Effect (IC50/μM) HaCaT
Experimental: as §1

[6] = tested on: CNE-1 cells; test: MTT assay, CNE-1 cells; format: cell-based, human; details: 72 h, read-out: Inhibitory Effect (IC50/μM) CNE-1
Experimental: as §1

[7] = tested on: c-myc G-quadruplex DNA; test: PCR-stop assay; format: biochemical, human; details: Taq polymerase
Experimental: In this study, c-myc G4 DNA and its reverse complementary sequence c-myc rev were heated to 95 °C for 5 min, allowed to cool to room temperature, and incubated at 4 °C overnight. The system was supplemented with dNTPs and Taq polymerase for PCR amplification; heated at 95 °C for 3 min, 94 °C for 30 s, and 58 °C for 30 s, with an extension at 72 °C for 30 s (30 cycles); and analyzed by 15% nondenatured polyacrylamide gel electrophoresis and silver staining.

[8] = tested on: c-myc G-quadruplex DNA; test: FRET melting assay; format: binding, human; details: free DNA Tm 59.5 °C
Experimental: Carboxy fluorescein (FAM) and 6-carboxytetramethyl rhodamine (TAMRA) double fluorescent-labeled c-myc G4 DNA (5′−FAM-TGAGGGTGGGAGGGGTAA-TAMRA−3′) were heated to 95 °C in Tris-HCl-KCl buffer (containing 10 mM Tris-HCl, 100 mM KCl, pH 7.4) for 5 min and slowly cooled to room temperature. To ds26, double-stranded DNA ([…]) is a competitive binder, research Λ/Δ−3 with c-myc G4 selectivity binding ability of DNA. A Bio-Radiq5 real-time PCR detection system was used to measure the fluorescence melting curve. Approximately 1 μM (5 μL) FPU22T was mixed with a series of 5 μL compound solutions of different concentrations, and 15 μLTris-HCl-KCl buffer was added to the PCR 8 tube to obtain a total volume of 25 μL. A real-time fluorescence quantitative PCR instrument was used, and incubation was performed at 30 °C for 30 min. The program temperature range was set to 30–95 °C at a temperature interval of 1 °C, and recording was performed after balancing for 30 s to detect the fluorescence value of FAM. The conditions of the reaction system were similar to those of the FRET melting point test except that different concentrations of ds26 were added.

[9] = tested on: MDA-MB-231 cells; test: ICP detection of Ru content in cells; format: cell-based, human; details: 24 h, control 0.4
Experimental: MDA-MB-231 cells were seeded in 10 cm cell culture dishes. After cell adherence, the cells were treated with the drug (0, 2.5, 5, and 10 μM) for 24 h. After 24 h, the cells were washed with PBS three times and collected by trypsin. The number of collected cells was counted by a cell counter. Then, the cells were digested in 1 mL HNO3 solution by microwave digestion at 120 °C for 3 min, and 1 mL of this solution was transferred to a 5 mL volumetric flask, diluted with distilled water to volume, and mixed. The Ru content of these solutions was analyzed by an ICP optical emission spectrometer (NCS, Plasma 2000). All measurements were repeated three times.

[10] = tested on: MDA-MB-231 cells; test: EdU proliferation assay; format: cell-based, human; details: control 50.2%
Experimental: The inhibitory effect of the chiral DPPZ-based Ru(II) complexes (Λ/Δ−1−3) was assessed against different human tumor cancer cells, such as breast cancer MCF-7, MDA-MB-231, lung cancer A549, liver carcinoma HepG2, nasopharyngeal carcinoma CNE-1, and human normal keratinocyte HaCaT cells, by MTT assay. […] Moreover, the inhibition of MDA-MB-231 cell proliferation by Δ−3 was detected by using an EdU (5-ethynyl-2′-deoxyuridine) staining kit, and EdU was incorporated into newly synthesized DNA in the sample cells. The red fluorescent azide is small enough to diffuse freely through native tissues and DNA, and it covalently cross-links to the EdU in a “click” chemistry reaction.

Compound	IC50 [1] [µM]	IC50 [2] [µM]	IC50 [3] [µM]	IC50 [4] [µM]	Ru content in cells ([9]; 2.5 μM) [ng/mL per 1 × 10^4 cells]	Ru content in cells ([9]; 5 μM) [ng/mL per 1 × 10^4 cells]	Ru content in cells ([9]; 10 μM) [ng/mL per 1 × 10^4 cells]	IC50 [5] [µM]	IC50 [6] [µM]	minimum concentration necessary for effective inhibition (PCR products) [7] [µM]	ΔTm ([8]; complex 0.5 μM)	ΔTm ([8]; complex 1.0 μM) [°C]	proliferation rate (EdU) ([10]; 10 μM) [%]	proliferation rate (EdU) ([10]; 20 μM) [%]	proliferation rate (EdU) ([10]; 40 μM) [%]
N.N.[Cl][Pt][Cl] [Cis-platin, cisplatin, reference compound]	9.9 ± 0.25	12.7 ± 0.7	14.27 ± 0.07	25.9 ± 1.9				7.1 ± 0.5							
Λ-[Ru(bpy)2(3-NBEDPPZ)](ClO4)2 [Λ−3]	55.4 ± 2.4	74.8 ± 2.4		53.5 ± 1.7	0.56	1.44	2.47	> 100	> 100	5	approximately 2.2 °C	~4.9	34.0	27.5	11.3

Continued, in another order:

IC50 [1] [µM]	IC50 [2] [µM]	IC50 [3] [µM]	IC50 [4] [µM]	Ru content in cells ([9]; 2.5 μM) [ng/mL per 1 × 10^4 cells]	Ru content in cells ([9]; 5 μM) [ng/mL per 1 × 10^4 cells]	Ru content in cells ([9]; 10 μM) [ng/mL per 1 × 10^4 cells]	Compound	IC50 [5] [µM]	IC50 [6] [µM]	minimum concentration necessary for effective inhibition (PCR products) [7] [µM]	ΔTm ([8]; complex 0.5 μM)	ΔTm ([8]; complex 1.0 μM) [°C]	proliferation rate (EdU) ([10]; 10 μM) [%]	proliferation rate (EdU) ([10]; 20 μM) [%]	proliferation rate (EdU) ([10]; 40 μM) [%]
89.9 ± 11.3	> 100	> 100	94.5 ± 9.1				Δ-[Ru(bpy)2(BrDPPZ)](ClO4)2 [Δ−2]	> 100	> 100						
> 100	> 100	> 100	> 100				Δ-[Ru(bpy)2(DPPZ)](ClO4)2 [Δ−1]	> 100	> 100						
91.5 ± 10.8	> 100	> 100	92.1 ± 12.1				Λ-[Ru(bpy)2(BrDPPZ)](ClO4)2 [Λ−2]	> 100	> 100						
> 100	> 100	> 100	60.8 ± 7.41				Λ-[Ru(bpy)2(DPPZ)](ClO4)2 [Λ−1]	> 100	> 100						
